# Tests used:
# Renilla luciferase-547 = molecular target: T1, Renilla luciferase-547 (Renilla reniformis, UniProt P27652, A123S/A143M/A55T/C124A/D154A/D162E/E155G/F262W/I163V/K136R/M185V/M253L/S130A/S287L); test: Measurement of emission spectrum with Renilla luciferase-547; format: biochemical; conditions: Renilla luciferase-547, 5 μg substrate, 50 mM Tris-HCl (pH 7.6)-10 mM EDTA, 22-25° C.
# T1 construct: His6 with pCold-II leader (MNHKVHHHHHHMELG...) (N); made in house; host or cells: Escherichia coli BL21
# Experimental: (§1) The luminescence reaction was initiated by adding luciferase to 1 mL of 50 mM Tris-HCl (pH 7.6)-10 mM EDTA containing 5 μg (1 μg/μL) of substrate coelenterazine or ν-coelenterazine dissolved in ethanol. The protein amounts of luciferases used were Renilla luciferase: 1.5 μg and Renilla luciferase-547: 7.2 μg in the case of coelenterazine as substrate. On the other hand, the protein amounts in ν-coelenterazine as substrate were Renilla luciferase: 14.7 μg and Renilla luciferase-547: 35.8 μg. Luminescence spectra were measured in a quartz cell with a 10 mm optical path under the conditions of band width: 20 nm, sensitivity: medium, scan speed: 2000 nm/min and 22-25° C., using a fluorescence spectrophotometer FP-6500 (manufactured by JASCO) with the excitation light source turned off.
# Renilla luciferase [1] = molecular target: T2, Renilla luciferase (Renilla reniformis, UniProt P27652); test: Measurement of luminescence activity with Renilla luciferase; format: biochemical; parameters: His tag (from vector pCold-II; inferred from the nickel-chelate purification and the vector) (N); made in house; host or cells: Escherichia coli BL21; conditions: Renilla luciferase 2.94 ng, 0.05 μg substrate, 30 mM Tris-HCl (pH 7.6)-10 mM EDTA; relative to coelenterazine
# T2 sequence (P27652 1-311): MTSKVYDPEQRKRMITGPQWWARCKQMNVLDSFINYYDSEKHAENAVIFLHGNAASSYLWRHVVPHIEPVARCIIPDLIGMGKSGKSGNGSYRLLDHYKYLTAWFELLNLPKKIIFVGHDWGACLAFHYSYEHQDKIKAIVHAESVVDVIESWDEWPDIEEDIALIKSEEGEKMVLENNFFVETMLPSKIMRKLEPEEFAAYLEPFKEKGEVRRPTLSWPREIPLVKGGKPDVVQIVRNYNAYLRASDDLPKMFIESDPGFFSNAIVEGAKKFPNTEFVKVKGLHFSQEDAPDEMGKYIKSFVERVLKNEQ
# Experimental: After Renilla luciferase (2.94 ng) or Renilla luciferase-547 (14.3 ng) was dispensed into a 96-well microplate (manufactured by Nunc) in an amount of 10 μL/well, 0.1 mL of 30 mM Tris-HCl (pH 7.6)-10 mM EDTA containing 0.05 μg of coelenterazine or ν-coelenterazine was injected into the wells thereby to initiate the luminescence reaction, and the luminescence intensity was measured using a luminescence plate reader Centro LB960 (manufactured by Berthold). The luminescence intensity was measured for 60 seconds 3 times in 0.1 second intervals, and the maximum luminescence intensity (Imax) and the mean (rlu) from luminescence integrated for 60 seconds were expressed in terms of relative activity (%) (TABLE 2).
# Renilla luciferase [2] = molecular target: T2, Renilla luciferase; test: Measurement of emission spectrum with Renilla luciferase; format: biochemical; parameters: His tag (from vector pCold-II; inferred from the nickel-chelate purification and the vector) (N); made in house; host or cells: Escherichia coli BL21; conditions: for Emission Maximum λmax / Emission spectrum half bandwidth: Renilla luciferase, 5 μg substrate, 50 mM Tris-HCl (pH 7.6)-10 mM EDTA, 22-25° C.; for shift of maximum emission wavelength (in words): summary of EXAMPLES, Renilla luciferase and Renilla luciferase-547
# Experimental: as §1
# Renilla luciferase [3] = molecular target: T2, Renilla luciferase; conditions: substrate for Renilla luciferase, cited from earlier work
# T1 sequence (P27652 other isoform, or with tags, fused parts or gaps with the stated changes): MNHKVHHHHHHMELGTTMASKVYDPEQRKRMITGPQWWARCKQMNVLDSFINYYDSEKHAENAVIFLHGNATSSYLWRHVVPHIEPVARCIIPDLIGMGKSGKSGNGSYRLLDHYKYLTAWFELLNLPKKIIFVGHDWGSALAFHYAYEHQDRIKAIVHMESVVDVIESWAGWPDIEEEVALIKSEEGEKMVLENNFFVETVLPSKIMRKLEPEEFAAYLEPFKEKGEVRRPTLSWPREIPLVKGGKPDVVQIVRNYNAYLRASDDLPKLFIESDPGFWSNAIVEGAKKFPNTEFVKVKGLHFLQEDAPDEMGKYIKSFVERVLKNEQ
compound,measurement,setting,value
"O=c1c(Cc2ccc(C(F)(F)F)cc2)nc2c(Cc3ccccc3)[nH]c3c4ccc(O)cc4ccc3n1-2 [cf3-v-Coelenterazine, cf3-ν-coelenterazine]",Emission Maximum λmax,Renilla luciferase-547,599.0 nm
same,Emission spectrum half bandwidth,Renilla luciferase-547,132 nm
same,"Luminescence integrated for 60 seconds (Int.), relative activity",Renilla luciferase [1],12.3%
same,"Maximum Luminescence Intensity Imax, relative activity",Renilla luciferase [1],18.9%
same,Emission Maximum λmax,Renilla luciferase [2],525.5 nm
same,Emission spectrum half bandwidth,Renilla luciferase [2],121 nm
same,shift of maximum emission wavelength (in words),Renilla luciferase [2],shifted toward a longer wavelength side even relative to ν-coelenterazine
"O=c1c(Cc2ccc(O)cc2)nc2c(Cc3ccccc3)[nH]c3c4ccc(O)cc4ccc3n1-2 [v-Coelenterazine, ν-Coelenterazine]",Emission Maximum λmax,Renilla luciferase-547,593.0 nm
same,Emission spectrum half bandwidth,Renilla luciferase-547,130 nm
same,part of emission spectrum distribution reaching the near-infrared region (>700 nm),Renilla luciferase [3],~5%
same,shift of maximum emission wavelength toward the longer wavelength side,Renilla luciferase [3]; from 475 nm,about 40 nm
same,maximum emission wavelength,Renilla luciferase [3]; green emission,512 nm
same,"Luminescence integrated for 60 seconds (Int.), relative activity",Renilla luciferase [1],47.3%
same,"Maximum Luminescence Intensity Imax, relative activity",Renilla luciferase [1],71.8%
same,Emission Maximum λmax,Renilla luciferase [2],519.0 nm
same,Emission spectrum half bandwidth,Renilla luciferase [2],105 nm
same,shift of maximum emission wavelength (in words),Renilla luciferase [2],shifted toward a longer wavelength side relative to coelenterazine
"O=c1c(Cc2ccc(O)cc2)nc2c(Cc3ccccc3)[nH]c(-c3ccc(O)cc3)cn1-2 [Coelenterazine, coelenterazine, reference compound]",Emission Maximum λmax,Renilla luciferase-547,547.0 nm
same,Emission spectrum half bandwidth,Renilla luciferase-547,124 nm
same,"Luminescence integrated for 60 seconds (Int.), relative activity",Renilla luciferase [1],100 (100) %
same,"Maximum Luminescence Intensity Imax, relative activity",Renilla luciferase [1],100 (100) %
same,Emission Maximum λmax,Renilla luciferase [2],485.0 nm
same,Emission spectrum half bandwidth,Renilla luciferase [2],95 nm

# Reference: patent US9346767B2, “Substituted pyrazines and a process for producing the same” (JNC CORPORATION, priority 2011, dated 2016)
